24 compounds from patent US8962627B2, “Oxime derivatives and their use as allosteric modulators of metabotropic glutamate receptors” (Prestwick Chemical, Inc., priority 2009, dated 2015) can be followed below.

In series [1] the target is T1, human mGluR4 transiently over-expressed in HEK-293 cells (Homo sapiens, UniProt Q14833).
T1 construct: expressed in transfected cells; host or cells: HEK-293 cells, transient co-transfection by electroporation
Kind of series: Human mGluR4 positive allosteric modulator evaluation using Ca++ functional assay. Format: cell-based. The settings on record: HEK-293 cells co-transfected with hmGluR4 and chimeric G protein; EC10 glutamate; intracellular calcium (Fluo4AM); read-out: mean EC50 of agonist/positive allosteric modulator activity on mGluR4. Put shortly: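 HEK-293 cells transiently co-transfected with hmGluR4 and a chimeric G protein, loaded with Fluo4AM; Ca2+ fluorescence read 485/525 nm. Compound alone read 60 s, then EC10 glutamate added and read 60 s more. EC50 fitted from 6–9 concentrations, duplicate, two independent runs.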
(A change in cytosolic calcium serves as a functional read-out for many receptors and channels.)

For the next series, the system named is mice. Kind of series: Marble burying test in the mouse. It is filed as in vivo. The settings on record: p<0.001. The text has this: In-Vivo Evaluation in the Marble Burying Test in the Mouse
The method, which detects anxiolytic/tranquilizing activity, follows that described by Broekkamp at al. (Eur. J. Pharmacol., 126, 223-229, 1986). Mice exposed to novel object (marbles) will bury them in the sawdust floor covering. Anxiolytics decrease the number of marbles buried at non-sedative doses.
Mice were individually placed in transparent plastic cages (33×21×18 cm) with 5 cm of sawdust on the floor and 25 marbles grouped in the centre of the cage. The cage was covered with an inverted plastic cage. Each test cage, together with the marbles, was impregnated with mouse odor before-hand by leaving 10 mice in the cage for 15 minutes. These mice then played no further role in the experiment. The number of marbles covered by sawdust (⅔ or more) was counted at the end of a 30 minute test. 12 mice were studied per group. The test was performed blind (apart from positive control). The compound of Example 85 was evaluated at 2 doses (100 and 300 mg/kg), administered p.o. 30 minutes before the test, and compared with vehicle control groups. Clobazam (8 mg/kg i.p.), administered 30 minutes before the test, was used as reference substance and was compared with the vehicle control group. Data were analyzed by comparing treated groups with control group using unpaired Student's t tests.

Where only a bound is given, the exact number is not on record here.

T1 sequence (Q14833 33-912): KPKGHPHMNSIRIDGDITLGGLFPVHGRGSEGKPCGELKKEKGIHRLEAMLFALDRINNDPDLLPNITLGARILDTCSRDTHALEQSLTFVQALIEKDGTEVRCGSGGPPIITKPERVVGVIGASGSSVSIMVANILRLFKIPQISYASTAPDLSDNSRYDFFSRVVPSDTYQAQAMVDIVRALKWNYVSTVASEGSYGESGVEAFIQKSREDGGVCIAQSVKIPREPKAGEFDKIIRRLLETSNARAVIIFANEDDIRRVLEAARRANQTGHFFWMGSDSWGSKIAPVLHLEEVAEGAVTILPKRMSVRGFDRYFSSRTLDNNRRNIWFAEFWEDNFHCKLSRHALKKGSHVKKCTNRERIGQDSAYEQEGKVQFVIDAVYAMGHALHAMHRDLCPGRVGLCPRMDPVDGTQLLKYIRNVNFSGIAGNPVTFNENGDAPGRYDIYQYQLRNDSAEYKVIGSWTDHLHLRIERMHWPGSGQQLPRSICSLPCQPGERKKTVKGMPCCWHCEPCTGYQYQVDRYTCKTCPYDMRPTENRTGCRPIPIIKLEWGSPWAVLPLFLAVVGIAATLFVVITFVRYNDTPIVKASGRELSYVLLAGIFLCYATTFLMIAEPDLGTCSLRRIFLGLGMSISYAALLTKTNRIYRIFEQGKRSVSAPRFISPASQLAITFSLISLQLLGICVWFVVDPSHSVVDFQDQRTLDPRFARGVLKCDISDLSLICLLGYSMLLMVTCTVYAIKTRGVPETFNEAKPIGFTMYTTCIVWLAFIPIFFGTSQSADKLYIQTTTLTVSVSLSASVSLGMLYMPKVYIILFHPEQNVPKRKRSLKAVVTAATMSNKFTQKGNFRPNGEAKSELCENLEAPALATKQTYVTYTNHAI

Turning to `Cl.ON=c1cc(-c2cc3cccn3cn2)oc2ccc(OCCN3CCOCC3)cc12` [Example 85, 6-(3-Morpholin-4-yl-ethoxy)-2-pyrrolo[1,2-c]pyrimidin-3-yl-chromen-4-one oxime hydrochloride], the EC50 in series [1] was below 1000 nM. The “decrease of the number of marbles covered by sawdust, as compared with vehicle controls” value with mice (100 mg/kg p.o. 30 minutes before the test) is reported as −70%; with mice (300 mg/kg p.o. 30 minutes before the test), −83%.
For the compound `ON=c1cc(-c2cc3cccn3cn2)oc2ccc(OCCOc3cccnc3)cc12` [Example 148, 6-[2-(Pyridin-3-yloxy)-ethoxy]-2-pyrrolo[1,2-c]pyrimidin-3-yl-chromen-4-one oxime], the melting point (usually the temperature of the solid-liquid transition) was 170 to 175 °C. In addition, the EC50 in series [1] is below 1000 nM.
In the same order, the values of `ON=c1cc(-c2cc3cccn3cn2)oc2ccc(OCCOc3ccncc3)cc12` [Example 147, 6-[2-(Pyridin-4-yloxy)-ethoxy]-2-pyrrolo[1,2-c]pyrimidin-3-yl-chromen-4-one oxime] are 198 to 200 °C and below 1000 nM.
In the same order, the values of `Cl.OC[C@@H]1CCCN1CCOc1ccc2oc(-c3cc4cccn4cn3)cc(=NO)c2c1` [Example 95, 6-[2-((S)-2-hydroxymethylpyrrolidin-1-yl)-ethoxy]-2-pyrrolo[1,2-c]pyrimidin-3-yl-chromen-4-one oxime, hydrochloride] are > 220 °C (dec.) and below 5000 nM.
On to `ON=c1cc(-c2cc3ccccc3cn2)oc2ccc(Br)cc12` (mixture of isomers) [Example 4, 6-bromo-2-isoquinolin-3-yl-chromen-4-one oxime], for which the melting point is 266 to 269 °C. Also, the EC50 in series [1] is below 1000 nM.
In the same order, the values of `COC[C@@H]1CCCN1CCOc1ccc2oc(-c3cc4cccn4cn3)cc(=NO)c2c1.Cl` [Example 96, 6-[2-((S)-2-methoxymethylpyrrolidin-1-yl)-ethoxy]-2-pyrrolo[1,2-c]pyrimidin-3-yl-chromen-4-one oxime, hydrochloride] are > 225 °C (dec.) and below 1000 nM.
Consider `ON=c1cc(-c2cc3cc(Br)cn3cn2)oc2ccccc12` [Example 65, 2-(6-bromo-Pyrrolo[1,2-c]pyrimidin-3-yl)-chromen-4-one oxime], for which the melting point is 244 to 245 °C. Besides, the EC50 in series [1] was below 5000 nM.
For `ON=c1cc(-c2cc3cccn3cn2)oc2ccc(OCCc3ccc(C(F)(F)F)cc3)cc12` [Example 137, 2-Pyrrolo[1,2-c]pyrimidin-3-yl-6-[2-(4-trifluoromethyl-phenyl)-ethoxy]-chromen-4-one, oxime] the same measures were 214 to 215 °C and below 1000 nM.
Regarding `ON=c1cc(-c2cc3ccccc3cn2)oc2ccc(O)cc12` (mixture of isomers) [Example 41, 6-hydroxy-2-isoquinolin-3-yl-chromen-4-one oxime], the melting point is 255 to 260 °C. Moreover, the EC50 in series [1] was below 5000 nM.
For `COCCN(CCOC)CCOc1ccc2oc(-c3cc4cccn4cn3)cc(=NO)c2c1.Cl` [Example 104, 6-(2-[bis-(2-methoxy-ethyl)-amino]-ethoxy)-2-pyrrolo[1,2-c]pyrimidin-3-yl-chromen-4-one oxime, hydrochloride] the same measures were 155 to 160 °C and below 1000 nM.
In the same order, the values of `ON=c1cc(-c2cc3cccn3cn2)oc2ccc(OCCc3cccc(F)c3)cc12` [Example 138, 6-[2-(3-Fluoro-phenyl)-ethoxy]-2-pyrrolo[1,2-c]pyrimidin-3-yl-chromen-4-one, oxime] are 205 to 207 °C and below 1000 nM.
Compound `ON=c1cc(-c2cc3ccccc3cn2)oc2cc(Br)ccc12` (mixture of isomers) [Example 2, 7-bromo-2-isoquinolin-3-yl-chromen-4-one oxime] came in with a melting point of 279 to 283 °C. Further, the EC50 in series [1] was below 5000 nM.
In the same order, the values of `Cl.ON=c1cc(-c2cc3sccc3cn2)oc2ccc(OCCN3CCOCC3)cc12` [Example 127, 6-(2-Morpholin-4-yl-ethoxy)-2-thieno[3,2-c]pyridin-6-yl-chromen-4-one oxime, hydrochloride] are > 230 °C (dec.) and below 1000 nM.
In the same order, the values of `COCCCc1ccc2oc(-c3cc4cccn4cn3)cc(=NO)c2c1` (mixture of isomers) [Example 83, 6-(3-Methoxy-propyl)-2-pyrrolo[1,2-c]pyrimidin-3-yl-chromen-4-one oxime] are 172 to 173 °C and below 1000 nM.
`Cl.ON=c1cc(-c2cc3ccsc3cn2)oc2ccc(OCCN3CCOCC3)cc12` [Example 158, 6-(2-Morpholin-4-yl-ethoxy)-2-thieno[2,3-c]pyridin-5-yl-chromen-4-one oxime, hydrochloride]: the melting point lay within 258 to 260 °C. Besides, the EC50 in series [1] is below 1000 nM.
For `ON=c1cc(-c2cc3cccn3cn2)oc2cccc(C(F)(F)F)c12` [Example 153, 2-Pyrrolo[1,2-c]pyrimidin-3-yl-5-trifluoromethyl-chromen-4-one oxime] the same measures were 255 to 257 °C and below 5000 nM.
For `COc1cccc2oc(-c3cc4cccn4cn3)cc(=NO)c12` [Example 139, 5-Methoxy-2-pyrrolo[1,2-c]pyrimidin-3-yl-chromen-4-one oxime] the same measures were 240 to 243 °C and below 1000 nM.
For `Cl.ON=c1cc(-c2cn3cccc3cn2)oc2ccc(OCCN3CCC(F)(F)CC3)cc12` [Example 124, 6-[2-(4,4-Difluoro-piperidin-1-yl)-ethoxy]-2-pyrrolo[1,2-a]pyrazin-3-yl-chromen-4-one oxime, hydrochloride] the same measures were 225 to 230 °C and below 1000 nM.
For the compound `Cn1ccc2cc(-c3cc(=NO)c4ccccc4o3)ncc21` [Example 77, 2-(1-Methyl-1H-pyrrolo[2,3-c]pyridin-5-yl)-chromen-4-one oxime], the melting point was 270 to 275 °C (dec.). Further, the EC50 in series [1] is below 5000 nM.
In the same order, the values of `CN(C)C1CCN(CCOc2ccc3oc(-c4cc5cccn5cn4)cc(=NO)c3c2)CC1.Cl.Cl` [Example 99, 6-[2-(4-dimethylamino-piperidin-1-yl)-ethoxy]-2-pyrrolo[1,2-c]pyrimidin-3-yl-chromen-4-one oxime, dihydrochloride] are > 255 °C (dec.) and below 1000 nM.
Turning to `Cl.ON=c1cc(-c2cc3cccn3cn2)oc2ccc(OCCN3CCCC3)cc12` [Example 87, 6-(2-Pyrrolidin-1-yl-ethoxy)-2-pyrrolo[1,2-c]pyrimidin-3-yl-chromen-4-one oxime, hydrochloride], the melting point was > 260 °C (dec.). Besides, the EC50 in series [1] is below 5000 nM.
`ON=c1cc(-c2cc3ccccc3cn2)oc2ccccc12` (mixture of isomers) [Example 1, 2-isoquinolin-3-yl-chromen-4-one oxime] gave a melting point of 247 to 249 °C. For the same compound, the EC50 in series [1] is below 1000 nM.
In the same order, the values of `Cl.ON=c1cc(-c2cc3sccc3cn2)oc2ccc(OCCN3CCC(F)(F)C3)cc12` [Example 133, 6-[2-(3,3-Difluoro-pyrrolidin-1-yl)-ethoxy]-2-thieno[3,2-c]pyridin-6-yl-chromen-4-one oxime, hydrochloride] are 226 to 229 °C and below 1000 nM.
In turn, `Cl.ON=c1cc(-c2cc3cccn3cn2)oc2ccc(CCCCN3CCOCC3)cc12` [Example 102, 6-(4-morpholin-4-yl-butyl)-2-pyrrolo[1,2-c]pyrimidin-3-yl-chromen-4-one oxime, hydrochloride] gave a melting point of 180 to 185 °C. Further, the EC50 in series [1] was below 1000 nM.
